Experiment in all cases: potency against CXCR6 with APJ panel – cell-based, beta-arrestin, DiscoveRx, uHTS hits, dose response (AID 624129)
In experiment [1] the target is C-C chemokine receptor type 6 (Homo sapiens) (UniProt P51684). The following applies: CXCR6 beta-arrestin (DiscoveRx) antagonist cell assay.
The target of experiment [2] is C-X-C chemokine receptor type 6 (Homo sapiens) (UniProt O00574). Conditions: CXCR6 beta-arrestin (DiscoveRx) antagonist cell assay; for inhibition: CXCR6, run 1, dose range 2, at 80 µM (top of the series).
Experiment [3] has as its target Beta-galactosidase (Escherichia coli) (UniProt Q8VNN2). Conditions: CXCR6 beta-arrestin (DiscoveRx) antagonist cell assay, b-galactosidase.
Experiment [4] has as its target Apelin receptor (Homo sapiens) (UniProt P35414). Conditions: CXCR6 beta-arrestin (DiscoveRx) antagonist cell assay, APJ.
Setting [5] is: CCR6, dose range 1, mean IC50 across replicates.
Where [6] appears, read: CXCR6, dose range 1, mean IC50 across replicates.
The mark [7] stands for this setting: dose range 1, mean IC50 across replicates.

The structures appear in SMILES notation. Active and inactive are the calls of the source. The rule behind the calls is not given here.

Sequence of Beta-galactosidase (Escherichia coli) (Q8VNN2 whole entry, looked up): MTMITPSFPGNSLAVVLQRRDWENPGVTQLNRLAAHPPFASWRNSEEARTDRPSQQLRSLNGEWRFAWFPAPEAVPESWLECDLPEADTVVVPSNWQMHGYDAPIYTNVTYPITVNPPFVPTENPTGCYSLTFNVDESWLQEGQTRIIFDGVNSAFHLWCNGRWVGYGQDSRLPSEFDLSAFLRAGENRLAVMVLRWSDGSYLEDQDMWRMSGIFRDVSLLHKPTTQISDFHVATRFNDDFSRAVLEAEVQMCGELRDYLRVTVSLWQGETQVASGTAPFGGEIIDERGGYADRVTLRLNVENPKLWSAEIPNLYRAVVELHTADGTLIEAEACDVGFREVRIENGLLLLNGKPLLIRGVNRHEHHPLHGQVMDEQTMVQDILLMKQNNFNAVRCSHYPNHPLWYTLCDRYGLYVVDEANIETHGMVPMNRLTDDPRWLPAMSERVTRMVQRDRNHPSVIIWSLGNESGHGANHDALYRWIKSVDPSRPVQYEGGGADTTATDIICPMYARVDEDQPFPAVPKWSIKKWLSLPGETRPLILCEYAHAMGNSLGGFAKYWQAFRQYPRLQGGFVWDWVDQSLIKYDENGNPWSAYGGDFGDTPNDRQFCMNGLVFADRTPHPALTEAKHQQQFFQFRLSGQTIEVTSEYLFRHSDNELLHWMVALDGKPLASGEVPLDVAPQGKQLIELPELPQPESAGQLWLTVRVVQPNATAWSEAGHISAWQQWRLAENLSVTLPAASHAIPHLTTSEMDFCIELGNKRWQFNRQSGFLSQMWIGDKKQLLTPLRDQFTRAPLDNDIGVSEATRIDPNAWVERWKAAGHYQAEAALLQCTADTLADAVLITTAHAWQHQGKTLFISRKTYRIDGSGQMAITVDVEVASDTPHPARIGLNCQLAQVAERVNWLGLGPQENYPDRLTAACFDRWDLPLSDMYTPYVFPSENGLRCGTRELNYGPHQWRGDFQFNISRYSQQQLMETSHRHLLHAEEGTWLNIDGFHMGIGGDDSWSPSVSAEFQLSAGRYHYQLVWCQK
Sequence of C-X-C chemokine receptor type 6 (Homo sapiens) (O00574 whole entry, looked up): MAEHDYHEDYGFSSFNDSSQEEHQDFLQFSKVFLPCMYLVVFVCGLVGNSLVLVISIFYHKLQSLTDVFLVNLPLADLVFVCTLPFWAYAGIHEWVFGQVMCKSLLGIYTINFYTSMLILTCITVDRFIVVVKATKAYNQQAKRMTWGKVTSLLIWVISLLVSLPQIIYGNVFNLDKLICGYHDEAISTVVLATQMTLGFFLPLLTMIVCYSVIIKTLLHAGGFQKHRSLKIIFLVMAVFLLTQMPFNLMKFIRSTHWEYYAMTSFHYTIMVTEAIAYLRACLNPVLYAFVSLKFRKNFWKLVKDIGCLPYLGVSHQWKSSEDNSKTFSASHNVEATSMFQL

The IC50 is the concentration that inhibits the measured activity by half. As a reminder, the inhibition is the drop in the measured response relative to a control, in per cent. Regarding `O=[N+]([O-])c1c(Nc2ccccc2O)cc(Cl)c2nonc12`, the IC50 was 11.8 µM in experiment [1] (CCR6, dose range 1); 12.6 µM in experiment [1] (setting [5]); 13.4 µM in experiment [1] (CCR6, run 2, dose range 1); 13 µM in experiment [2] (setting [6]); 9.03 µM in experiment [2] (CXCR6, run 2, dose range 1); > 80 µM (inactive) in experiment [3] (dose range 1). In addition, the IC50 in experiment [3] (setting [7]) is greater than 80 µM; in experiment [4] (dose range 1), 20 µM; in experiment [4] (setting [7]), 23.2 µM; in experiment [4] (run 2, dose range 1), 24.4 µM; in experiment [4] (run 3, dose range 1), 25.2 µM. Further, the IC50 entry in experiment [2] (CXCR6, dose range 1) was “inactive”. Moreover, in experiment [2], the inhibition was determined as 123%.
Consider `C=C1C(=O)C23CCC4C(C)(C(=O)OC)CCCC4(C)C2CCC1(O)C3` (centres undefined), for which the IC50 is 5.19 µM in experiment [1] (CCR6, dose range 1); 5.45 µM in experiment [1] (setting [5]); 5.72 µM in experiment [1] (CCR6, run 2, dose range 1); 5.72 µM in experiment [2] (CXCR6, dose range 1); 6.19 µM in experiment [2] (setting [6]); 6.35 µM in experiment [2] (CXCR6, run 1, dose range 2). Further, the half-inhibitory concentration (IC50) in experiment [2] (CXCR6, run 2, dose range 1) was 5.95 µM; in experiment [2] (CXCR6, run 2, dose range 2), 6.77 µM; in experiment [3] (dose range 1), > 80 µM (inactive); in experiment [3] (setting [7]), greater than 80 µM; in experiment [4] (dose range 1) it was 9.66 µM; in experiment [4] (setting [7]), 8.26 µM. In addition, the IC50 stood at 7.57 µM in experiment [4] (run 2, dose range 1) and 7.54 µM in experiment [4] (run 3, dose range 1).
For the molecule `COc1ccc(NC(=O)/C(Cl)=C(/Cl)S(=O)Cc2ccc(Cl)cc2)cn1` (centres undefined), the IC50 in experiment [1] (setting [5]) is greater than 80 µM; in experiment [1] (CCR6, run 2, dose range 1), greater than 80 µM; in experiment [2] (CXCR6, dose range 1), > 80 µM (inactive); in experiment [2] (setting [6]), greater than 80 µM; in experiment [2] (CXCR6, run 2, dose range 1) it was greater than 80 µM; in experiment [3] (dose range 1), > 80 µM (inactive). For the same molecule, the IC50 is greater than 80 µM in experiment [3] (setting [7]); greater than 80 µM in experiment [4] (setting [7]); greater than 80 µM in experiment [4] (run 2, dose range 1); greater than 80 µM in experiment [4] (run 3, dose range 1). In experiment [2], the inhibition is -36.2%.
Take `CCc1cc2c(=O)[nH]c(-c3ccccn3)nc2s1`: the IC50 was 1.76 µM in experiment [1] (CCR6, dose range 1); 2.43 µM in experiment [1] (setting [5]); 3.1 µM in experiment [1] (CCR6, run 2, dose range 1); 2.61 µM in experiment [2] (CXCR6, dose range 1); 1.76 µM in experiment [2] (setting [6]); 1.4 µM in experiment [2] (CXCR6, run 1, dose range 2). Further, the IC50 is 1.74 µM in experiment [2] (CXCR6, run 2, dose range 1); 1.28 µM in experiment [2] (CXCR6, run 2, dose range 2); > 80 µM (inactive) in experiment [3] (dose range 1); greater than 80 µM in experiment [3] (setting [7]); 1.79 µM in experiment [4] (dose range 1); 2.03 µM in experiment [4] (setting [7]). Further, the IC50 in experiment [4] (run 2, dose range 1) stood at 2.16 µM; in experiment [4] (run 3, dose range 1), 2.13 µM.
As for `COc1ccc(CCN2C(=O)C=CC2=O)cc1OC`, the IC50 was 4.86 µM in experiment [1] (CCR6, dose range 1); 6.32 µM in experiment [1] (setting [5]); 7.78 µM in experiment [1] (CCR6, run 2, dose range 1); 9.39 µM in experiment [2] (CXCR6, dose range 1); 8.38 µM in experiment [2] (setting [6]); 7.37 µM in experiment [2] (CXCR6, run 2, dose range 1). In addition, the IC50 was > 80 µM (inactive) in experiment [3] (dose range 1); greater than 80 µM in experiment [3] (setting [7]); 9.45 µM in experiment [4] (dose range 1); 21.1 µM in experiment [4] (setting [7]); 8.84 µM in experiment [4] (run 2, dose range 1); 45.1 µM in experiment [4] (run 3, dose range 1). Also, the inhibition in experiment [2] was 122%.
Take `C/C(=N\NC(=O)Cn1c(-c2ccccn2)nc2ccccc21)c1ccccc1`: the IC50 was 13.7 µM in experiment [1] (CCR6, dose range 1); 16.2 µM in experiment [1] (setting [5]); 18.7 µM in experiment [1] (CCR6, run 2, dose range 1); 18.4 µM in experiment [2] (setting [6]); 9.71 µM in experiment [2] (CXCR6, run 1, dose range 2); 29.4 µM in experiment [2] (CXCR6, run 2, dose range 1). The concentration for half-maximal inhibition (IC50) was 8.43 µM in experiment [2] (CXCR6, run 2, dose range 2); 34 µM in experiment [3] (dose range 1); 34 µM in experiment [3] (setting [7]); 23.9 µM in experiment [4] (dose range 1); 21.3 µM in experiment [4] (setting [7]); 16.1 µM in experiment [4] (run 2, dose range 1). Also, in experiment [4] (run 3, dose range 1), the IC50 turned out to be 23.9 µM. Also, the IC50 entry in experiment [2] (CXCR6, dose range 1) was “inactive”.
For `COc1ccc(C(=O)/C=C/C(=O)N(CC(=O)NC2CCCCC2)Cc2cccs2)c(O)c1`, the half-inhibitory concentration (IC50) is greater than 80 µM in experiment [1] (setting [5]); greater than 80 µM in experiment [1] (CCR6, run 2, dose range 1); > 80 µM (inactive) in experiment [2] (CXCR6, dose range 1); greater than 80 µM in experiment [2] (setting [6]); greater than 80 µM in experiment [2] (CXCR6, run 2, dose range 1); > 80 µM (inactive) in experiment [3] (dose range 1). Moreover, the IC50 in experiment [3] (setting [7]) was greater than 80 µM; in experiment [4] (setting [7]), greater than 80 µM; in experiment [4] (run 2, dose range 1) it was greater than 80 µM; in experiment [4] (run 3, dose range 1), greater than 80 µM. In addition, in experiment [2], the inhibition was -73%.
With `COc1ccc(C2CC(c3c(O)n(CCc4ccccc4)c(=O)[nH]c3=O)=NN2)cc1OC` (centres undefined), the IC50 in experiment [1] (CCR6, dose range 1) is 14.8 µM; in experiment [1] (setting [5]), 18 µM; in experiment [1] (CCR6, run 2, dose range 1), 21.2 µM; in experiment [2] (setting [6]), 14.2 µM; in experiment [2] (CXCR6, run 1, dose range 2), 6.37 µM; in experiment [2] (CXCR6, run 2, dose range 1), 22.4 µM. Also, the IC50 in experiment [2] (CXCR6, run 2, dose range 2) was 8.63 µM; in experiment [3] (setting [7]) it was 52 µM; in experiment [4] (dose range 1), 10.5 µM; in experiment [4] (setting [7]), 14.3 µM; in experiment [4] (run 2, dose range 1), 22.1 µM; in experiment [4] (run 3, dose range 1), 10.4 µM. In addition, the IC50 result in experiment [2] (CXCR6, dose range 1) was “inactive”; in experiment [3] (dose range 1) it was “inactive”.

The values above are taken from PubChem BioAssay AID624129 (Sanford-Burnham Center for Chemical Genomics, 2012).
